# From the METLIN SMRT retention time set (Domingo-Almenara et al. 2019)
# Assay: gradient 5% acetonitrile 3 min, to 50% in 2 min, to 85% in 15 min, held 3 min, 100 µL/min
# Conditions: column: Zorbax Extend-C18 2.1 x 50 mm; eluents: water / acetonitrile, 0.1% formic acid
# Summary of the method: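 Using water and acetonitrile that each contained 0.1% formic acid, mixtures of ~100 pure standards were separated at 100 μL/min on a Zorbax Extend-C18 column (2.1 × 50 mm, 1.8 μm). The HPLC fed a quadrupole time-of-flight mass spectrometer working in positive and negative ionization mode, with dead and dwell volumes of 40 μL and 900 μL. Data were acquired over 3 months. Retention time was read from computationally picked adduct peaks after manual inspection of each.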
row,SMILES,RP-LC retention time [s]
1,O=C(Nc1ccccn1)C1CCN(S(=O)(=O)c2cc(-c3noc(C4CCC4)n3)cs2)CC1,893
2,Cc1ccc(-c2nc3cnccn3c2NCCC(=O)N2CCC(N3CCCCC3)CC2)cc1,598
3,O=C(Cn1nc2c(N3CCCCCC3)nccn2c1=O)NCCC1=CCCCC1,784
4,Cc1ccnc(N2CCC(C(=O)NCCCN3CCCC(C)C3)CC2)n1 (stereo not drawn),568
5,Cc1ccc(-c2noc(C3CCCN3S(=O)(=O)c3ccc(F)c(Cl)c3)n2)cc1 (stereo not drawn),1240
6,O=C(NCC(=O)N1CCc2ccccc21)Nc1ccccc1C(F)(F)F,890
7,Cc1cc(Cl)ccc1S(=O)(=O)N1CCC(n2cnnc2C)CC1,745
8,Cc1ccc(-c2csc(Nc3ccc(F)cn3)n2)cc1C,1180
9,Nc1nc2ccc([N+](=O)[O-])cc2[nH]1,610
10,Cc1nn(-c2ccc(F)cc2)c2nc(N3CCCC(C(=O)NCc4cccc(F)c4)C3)sc12 (stereo not drawn),1130
11,CCC(C)(C)NC(=O)C1CCCN1S(=O)(=O)c1cc2c(cc1C)NC(=O)CO2 (stereo not drawn),745
12,Cc1cc(OCC(=O)NCCn2nc(-c3cccnc3)ccc2=O)ccc1Cl,617
13,O=C(NCCN1CCCCC1)c1ccc2c(=O)n(-c3ccc(F)cc3)c(N3CCCC3)nc2c1,629
14,CN(C)CCCN(C(=O)c1ccc(Br)s1)c1nc2c(F)cccc2s1,617
15,Cc1cn(C)c(CC(=O)N2CCCCCC2)c1C(=O)O,664
16,Cc1ccc(C)c(-c2cc3c(=O)n(Cc4nc(-c5ccc(Cl)cc5)no4)ncn3n2)c1,1220
17,COc1cccc(N2CCN(Cc3nc4nc(C)cc(N5CCCC5)n4n3)CC2)c1,619
18,O=C(NCc1ccccc1Cl)c1c(O)c2cccnc2n(-c2cccc(F)c2)c1=O,1230
19,COc1ccc(-c2nc3cccnc3n2C2CCN(C(=O)c3cccs3)C2)cc1 (stereo not drawn),732
20,Cc1ccc(S(=O)(=O)N2CCc3nc(-c4ccc(F)cc4)ncc3C2)cc1C,1170
21,COCCN1CCC2(CC1)CN(Cc1cc(Cl)ccc1F)Cc1ccccc1O2,778
22,Nc1cc(C2CCN(C(=O)Nc3ccc(Br)cc3F)CC2)no1,736
23,CCCCNC(=O)Cn1nc2c3cc(-c4ccccc4)nn3ccn2c1=O,807

row,SMILES,RP-LC retention time [s]
1,CC(C)c1csc(-c2csc(S(=O)(=O)N3CCN(c4ccccc4F)CC3)c2)n1,1330
2,O=C(Nc1ccc(N2CCN(Cc3ccccc3)C2=O)nc1)C1CCC1,737
3,Cc1ccc(CNC(=O)N2CCC(n3c(C(F)(F)F)nc4cccnc43)CC2)cc1,844
4,CCOc1ccc(-c2[nH]ncc2CN2CCC3(CC2)CC(C)(O)CCO3)cc1 (stereo not drawn),596
5,O=C(NC1CCN(c2cc(-c3ccc(F)cc3)[nH]n2)C1)c1ccc(Br)cc1 (stereo not drawn),864
6,CC(C)c1nnc2ccc(N3CCCC3)nn12,819
7,O=C(Nc1ccccc1F)N1CCC(n2cnc3ccc(F)cc3c2=O)CC1,743
8,O=C(Cn1nc2c3cc(-c4ccc(Cl)cc4)nn3ccn2c1=O)NC1CCCCC1,906
9,Cc1ccc(C)c(N2CCN(C(=O)C3CCN(C(=O)C4Sc5ccccc5NC4=O)CC3)CC2)c1 (stereo not drawn),944
10,Cc1cccc(CNc2cc(-n3cccn3)ncn2)c1,648
11,O=c1ccc(-c2ccccc2)nn1CCc1nc(-c2ccc(Cl)cc2)no1,1040
12,O=C(CSc1ccc(N2CCCC(C(=O)NC3CC3)C2)nn1)Nc1cc(F)cc(F)c1 (stereo not drawn),680
13,CC(C)c1nc2c(c(=O)n1CC(=O)NCc1ccccc1)CN(Cc1ccccc1)CC2,659
14,O=C1NC2(CCN(C(=O)Nc3ccc(F)cc3)CC2)Oc2ccccc21,742
15,CCS(=O)(=O)N1CCCc2cc(C(=O)N3CCCCCC3)ccc21,824
16,NC(=O)N1CCC(CC(=O)N2CCC([C@H]3c4ncc(Br)cc4CCc4cc(Cl)cc(Br)c43)CC2)CC1,1040
17,Cc1nnc2ccc(N3CCC(C(=O)N4CCN(c5ncccn5)CC4)CC3)nn12,646
18,COc1ccc(-c2ccc(=O)n(Cc3nc(-c4ccccn4)no3)n2)cc1,780
19,O[C@H](CNC[C@@H](O)[C@H]1CCc2cc(F)ccc2O1)[C@@H]1CCc2cc(F)ccc2O1,791
20,CCCn1c(=O)c(C)nc2cc(-c3noc(C4CC(=O)N(c5cccc(Cl)c5)C4)n3)ccc21 (stereo not drawn),1050
21,CCn1c(=O)n(CC)c2cc(S(=O)(=O)c3ccccc3)c(NC(=O)C3CC3)cc21,816
22,COc1ccc2sc(N(CCN(C)C)C(=O)Cc3ccccc3)nc2c1,601
23,O=C(c1c[nH]c2ccccc12)N1C[C@@H]2C[C@H]1C[C@@H]2NS(=O)(=O)c1ccccc1,679

# Now from value to compound:
row,RP-LC retention time [s],SMILES
1,770,Cc1ccc2c(=O)c(C(=O)Nc3cccc(F)c3)c[nH]c2n1
2,788,COC(=O)c1c(NCc2ccc3c(c2)OCO3)c2cccc(Cl)c2[nH]c1=O
3,840,Cc1nc(-c2ccc(C(=O)N3CCC(C)CC3)cc2)no1
4,620,Cc1ccc(=O)n(CCNC(=O)Cc2cn(C)c3ccccc23)n1
5,640,Cc1ccc(NC(=O)c2ccc(CN3CCN(C)CC3)cc2)cc1Nc1nccc(-c2cccnc2)n1
6,1340,Cc1ccc(C)c(-c2cc3c(=O)n(Cc4nc(-c5cccc(Br)c5)no4)ncn3n2)c1
7,563,Cc1ccc(NC(=O)N2CCN(c3cnn4c(C)nnc4c3)CC2)cc1
8,1020,CCCCOc1ccc(C(=O)Nc2cccc3c2C(=O)NC3=O)cc1
9,634,COc1ccc(Cl)c2c(=O)c3c([nH]c12)CCN(CC(=O)Nc1ccc(F)c(F)c1)C3
10,995,Cc1ccc(-c2ncc(C(=O)Nc3cc(C)ccc3F)c(-c3ccncc3)n2)cc1
11,812,CCOC(=O)c1nc(Nc2ccccc2F)c2ccccc2n1
12,980,Cc1nc(-c2cn(C(C)C)c3ncccc23)sc1C(=O)NCc1ccc2c(c1)OCO2
13,884,COC(=O)c1cc2c(cc1NC(=O)c1cc(-c3cccnc3)nc3ccccc13)OCO2
14,786,CN(C)c1nn(CC(=O)Nc2ccc(S(C)(=O)=O)cc2)cc1-c1ccccc1
15,610,Cc1noc(CNC(=O)C2CCN(C(=O)c3cc(-c4ccccc4)n[nH]3)CC2)n1
16,668,CCC(C)NC(=O)c1ccc2c(c1)CCN2C(C)=O (stereo not drawn)
17,674,O=C(O)CCC(=O)Nc1cccc(C(F)(F)F)c1
18,968,Cc1ccc(C)c(N2CCN(C(=O)c3csc(C(=O)NC4CC4)n3)CC2)c1
19,903,CCOc1ccc(C(=O)NC2(c3nc(C)no3)CCCCC2)cc1OCC
20,859,COc1ccc(NC(=O)Cn2nc3c(Oc4cccc(Cl)c4)nccn3c2=O)cc1
21,779,CCCNC(=O)CCc1c(C)c(C(=O)OCC)c(C)n1C

row,RP-LC retention time [s],SMILES
1,911,COc1ccc(C(=O)CSc2nnc(-c3cc(C)oc3C)o2)cc1OC
2,770,COc1ccc(NC(=O)C2CC(=O)N(c3ccc4c(c3)CCN4C(=O)C3CC3)C2)cc1F (stereo not drawn)
3,725,COCCCNC(=O)CN1c2ccccc2NC2=C(C(=O)CC(C)(C)C2)C1c1ccco1 (stereo not drawn)
4,646,Cn1nc(C(=O)N2CCCC(C(=O)NC3CC3)C2)c2c1CCN(C(=O)c1cccc(F)c1)C2 (stereo not drawn)
5,717,COCCCNC(=O)c1nnc(-c2ccc(S(=O)(=O)N(C)C)cc2)o1
6,717,Cc1ccc(NC(=O)Cn2nc3n(c2=O)CCCCC3)cc1C
7,1190,Cc1sc(-c2nc(C(C)C)cs2)cc1S(=O)(=O)NCc1ccccc1
8,840,COC(=O)c1cccc(NC(=O)c2nc(C)oc2C)c1
9,730,Cc1ccc(C)c(NC(=O)N2C[C@@H](F)C[C@H]2C(=O)N2CCCCC2)c1
10,1060,O=C(Nc1ccc(Br)cc1F)C1CCCN(C(=O)c2cccc(C(F)(F)F)c2)C1 (stereo not drawn)
11,681,O=C(O)Cc1sc(NCc2ccccc2)nc1-c1ccccc1
12,965,COc1ccc(OC)c(NC(=O)Cn2nc3cc(-c4ccccc4)nc(C)n3c2=O)c1
13,681,O=C(O)c1cccn2c(=O)c3cc(F)ccc3nc12
14,676,CN(C)c1ccc(NC(=O)Cn2nc3c(Oc4ccccc4Cl)nccn3c2=O)cc1
15,1280,Cc1cc(F)ccc1NC(=O)c1c(O)c2cccnc2n(-c2ccccc2)c1=O
16,1070,CCCCN(CC)c1ccc(C(=O)O)cc1NC(=O)c1cccs1
17,591,CN(C)C(CNS(=O)(=O)c1cc(Cl)ccc1Cl)c1cccs1 (stereo not drawn)
18,1160,CCCNC(=O)C1CCN(c2ccc(SCC(=O)Nc3ccc(C)cc3Cl)nn2)CC1
19,668,CCCNC(=O)C1CCCN(C(=O)c2[nH]c(C)c(C(=O)OC)c2C)C1 (stereo not drawn)
20,949,CCc1noc(C2(NC(=O)c3cccc(F)c3)CCCCC2)n1
21,797,Cc1cc(NC(=O)C2CCc3nc(N4CCOCC4)ncc3C2)ccc1F (stereo not drawn)
